{
  "source": "patent US8722616B2",
  "about": "“Anti-HIV peptides and methods of use thereof” (priority 2009, dated 2014)",
  "key": {"[1]": {"test": "in vitro", "conditions": "human", "experimental": "(§1) Anti-HIV cytopathic effect inhibition assays were conducted as described (Buckheit et al. (1995) Antimicrob. Agents Chemother., 39:2718-2727). In brief, serially diluted peptides were added to a 96-well round bottom microtiter plate in triplicate. CEM-SS cells at a concentration of 2.5×10^3 cells per well and HIV-1IIIB at the appropriate pre-determined titer were sequentially added to the microtiter plate. The cultures were incubated at 5% CO2/37° C. for six days. Following the incubation, the microtiter plates were stained with XTT tetrazolium dye to evaluate the efficacy and toxicity of the test compound(s).\nas §1, with “Cytopathic Effect (CPE) Inhibition Assay: The CPE assay was performed” for “Anti-HIV cytopathic effect inhibition assays were conducted”, “as previously” for “as”, “Briefly,” for “In brief,”, “compound was” for “peptides were”"}, "[2]": {"system": "CEM-SS cells", "test": "in vitro", "experimental": "as §1\nas §1, with “Cytopathic Effect (CPE) Inhibition Assay: The CPE assay was performed” for “Anti-HIV cytopathic effect inhibition assays were conducted”, “as previously” for “as”, “Briefly,” for “In brief,”, “compound was” for “peptides were”"}, "[3]": {"system": "HIV-1IIIB", "test": "microbe, parasite or virus in culture", "experimental": "as §1\nas §1, with “Cytopathic Effect (CPE) Inhibition Assay: The CPE assay was performed” for “Anti-HIV cytopathic effect inhibition assays were conducted”, “as previously” for “as”, “Briefly,” for “In brief,”, “compound was” for “peptides were”"}, "[4]": {"system": "methicin-resistant Staphylococcus aureus (MRSA) USA-300", "excerpt": "(§2) The frequently used residues identified in each kingdom may be applied to peptide design in different ways. First, new antimicrobial peptides can be designed based on ‘templates derived from naturally occurring antimicrobial peptides’. […] Second, new antimicrobial peptides can be designed by ‘combining database-derived peptide motifs’, consisting of frequently used residues. Using the motifs consisting of only residues Gly, Leu and Lys, a second peptide was designed. […] Third, new peptides can be designed based on ‘amino acid percentages obtained from statistical analysis of antimicrobial peptides’ from a specific kingdom or peptide family. Thus, a third peptide was designed in three steps. (i) The amino acid composition for MULTI-18 was obtained by multiplying the percentage of each residue with the total number of residues (18 here) in the target peptide. […] (iii) Multiple peptides can be obtained by combining the above motifs. Only one peptide was designed by following the amphipathic pattern for helical peptides."}, "[5]": {"system": "E. coli K12", "excerpt": "as §2"}, "[6]": {"system": "HIV", "conditions": "literature; cited from earlier work"}, "[7]": {"conditions": "Table 4, LL-37-derived peptides, CEM-SS cells"}},
  "note": "Read-outs that look alike come from different tables or passages of the source. No end group written: not given here.",
  "data": [
    {"molecule": "Cc1cn([C@H]2C[C@H](N=[N+]=[N-])[C@@H](CO)O2)c(=O)[nH]c1=O", "note": "[AZT, reference compound]", "values": [
      {"measurement": "CC50 at 6 days", "setting": "[1]", "value": "> 0.5", "unit": "µM"},
      {"measurement": "CC50", "setting": "[2]; human, 6 days", "value": "> 0.5", "unit": "µM"},
      {"measurement": "EC50", "setting": "[3]; Human immunodeficiency virus 1", "value": 0.007, "unit": "µM"},
      {"measurement": "EC50", "setting": "[3]; Human immunodeficiency virus 1, CEM-SS", "value": 0.007, "unit": "µM"}
    ]},
    {"molecule": "CC[C@H](C)[C@H](NC(=O)[C@H](CCCNC(=N)N)NC(=O)[C@H](CCC(N)=O)NC(=O)[C@@H](NC(=O)[C@@H](NC(=O)[C@H](CCCNC(=N)N)NC(=O)[C@H](CCCCN)NC(=O)[C@H](Cc1ccccc1)NC(=O)CN)[C@@H](C)CC)C(C)C)C(=O)N[C@@H](CCCCN)C(=O)N[C@@H](CC(=O)O)C(=O)N[C@@H](Cc1ccccc1)C(=O)N[C@@H](CC(C)C)C(=O)N[C@@H](CCCNC(=N)N)C(=O)N[C@@H](CC(N)=O)C(=O)N[C@@H](CC(C)C)C(=O)N[C@H](C(N)=O)C(C)C", "note": "[GF-17]", "values": [
      {"measurement": "CC50 at 6 days", "setting": "[1]", "value": 8.9, "unit": "µM"},
      {"measurement": "CC50 at 144 h", "setting": "[1]; CEM-SS cells", "value": 18.7, "unit": "µg/mL"},
      {"measurement": "CC50", "setting": "[2]", "value": 10.8, "unit": "µM"}
    ]},
    {"molecule": "GLKKLLGKLLKKLGKLLLK [GLK-19]", "values": [
      {"measurement": "IC50", "setting": "[4]; USA-300", "value": 160, "unit": "µM"},
      {"measurement": "IC50", "setting": "[5]; K12", "value": 10, "unit": "µM"},
      {"measurement": "CC50", "setting": "[2]", "value": 25.1, "unit": "µM"},
      {"measurement": "EC50", "setting": "[3]; 1IIIB", "value": "> 47.5", "unit": "µM"}
    ]},
    {"molecule": "KKLLKKLKKLLK [KL-12]", "values": [
      {"measurement": "inactive against MRSA USA-300 until", "setting": "[4]", "value": "> 160", "unit": "mM"},
      {"measurement": "inactive against E. coli K12 until", "setting": "[5]", "value": "> 160", "unit": "mM"}
    ]},
    {"molecule": "RLFDKIRQVIRKF-NH2 [Retro-FK13]", "values": [
      {"measurement": "CC50 at 6 days", "setting": "[1]", "value": 33.7, "unit": "µM"},
      {"measurement": "EC50", "setting": "[3]; [7]", "value": "> 58.1", "unit": "µM"}
    ]},
    {"molecule": "SKEKIGKEFKRIVQRIKDFLR [SK-21]", "values": [
      {"measurement": "CC50 at 6 days", "setting": "[1]; CEM-SS cells", "value": 22.5, "unit": "µM"},
      {"measurement": "anti-HIV activity in words", "setting": "[3]", "value": "active against HIV"},
      {"measurement": "EC50", "setting": "[3]; >100 μg/ml defined as HIV inactive", "value": 28.5, "unit": "µg/mL"},
      {"measurement": "EC50", "setting": "[3]; [7]", "value": 10.8, "unit": "µM"}
    ]},
    {"molecule": "indolicidin (ILPWKWPWWPWRR; ends and bridges not checked; UniProt P33046 131-143, looked up) [bovine Trp- and Pro-rich cathelicidin peptide]", "values": [
      {"measurement": "concentration required to be effective against HIV", "setting": "[6]", "value": 333, "unit": "µg/mL"}
    ]}
  ]
}
